Source: PMC4805124 (Biochemistry, 2015)
“And” between values parts separate entries of the source, which are not always exact repeats. Equal entries are not always repeated. Where two headings read alike, the source gives them in different places.

How the values were obtained:
InhA^WT [1] = molecular target: T1, InhA^WT (Mycobacterium tuberculosis, UniProt P9WGR1); format: biochemical
InhA^WT [2] = molecular target: T1, InhA^WT; format: binding
InhA = details: cited from earlier work

T1 sequence (P9WGR1 whole entry, looked up): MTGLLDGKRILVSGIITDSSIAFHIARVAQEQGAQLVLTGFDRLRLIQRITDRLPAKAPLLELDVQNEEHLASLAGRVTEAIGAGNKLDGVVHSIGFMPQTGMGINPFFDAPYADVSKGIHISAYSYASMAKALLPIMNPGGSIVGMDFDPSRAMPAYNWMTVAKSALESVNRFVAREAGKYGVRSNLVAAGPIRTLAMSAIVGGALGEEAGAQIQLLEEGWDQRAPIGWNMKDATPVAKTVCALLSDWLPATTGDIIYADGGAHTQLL

## CCCCCCc1ccc(Oc2ccccc2C)c(O)c1 [PT70, 2-(o-tolyoxy)-5-hexylphenol]
InhA^WT [1]
  Ki^app/Ki*^app: 10.8
  k5: 0.40 ± 0.01 min⁻¹
  k6: 0.025 ± 0.002 min⁻¹
  tR (1/k6): 40 ± 2 min
  ΔΔG: 1.41 and 1.41 kcal mol^−1
InhA^WT [1]; read-out: Ki*^app
  Ki: 0.024 µM and 0.0237 µM
InhA^WT [1]; read-out: Ki^app
  Ki: 0.256 ± 0.038 µM
InhA^WT [2]
  tR (^32P- NAD): 37 ± 2 min
InhA
  residence time: 40 min
InhA; slow-onset, tight binding inhibitor
  Ki: 0.0006 µM

## Cc1ccccc1Oc1ccc(Cn2cc(-c3ccccc3)nn2)cc1O [PT163, 5-((4-phenyl-1H-1,2,3-triazol-1-yl)methyl)-2-(o-tolyloxy)phenol]
InhA^WT [1]
  k5: 0.44 ± 0.06 min⁻¹
  k6: 0.011 ± 0.001 min⁻¹
  tR (1/k6): 94 ± 3 min
  ΔΔG: 2.26 kcal/mol
InhA^WT [2]
  tR (^32P- NAD): 114 min and 114 ± 18 min
